According to ChEMBL document CHEMBL1122779, “Antiinflammatory agents. 3. Synthesis and pharmacological evaluation of 2-amino-3-benzoylphenylacetic acid and analogues” (J Med Chem, 1984):

Legend:
[1] = system: Rattus norvegicus; assay: Percent change in average volume of pleural fluid at a dose of 4.0 mg/kg and 5-h response by Evans blue-carrageenan induced pleural effusion assay.; type: functional
[2] = molecular target: T1, Cyclooxygenase (Bos taurus, UniProt O62664+O62698)
T1 sequence (O62664 whole entry): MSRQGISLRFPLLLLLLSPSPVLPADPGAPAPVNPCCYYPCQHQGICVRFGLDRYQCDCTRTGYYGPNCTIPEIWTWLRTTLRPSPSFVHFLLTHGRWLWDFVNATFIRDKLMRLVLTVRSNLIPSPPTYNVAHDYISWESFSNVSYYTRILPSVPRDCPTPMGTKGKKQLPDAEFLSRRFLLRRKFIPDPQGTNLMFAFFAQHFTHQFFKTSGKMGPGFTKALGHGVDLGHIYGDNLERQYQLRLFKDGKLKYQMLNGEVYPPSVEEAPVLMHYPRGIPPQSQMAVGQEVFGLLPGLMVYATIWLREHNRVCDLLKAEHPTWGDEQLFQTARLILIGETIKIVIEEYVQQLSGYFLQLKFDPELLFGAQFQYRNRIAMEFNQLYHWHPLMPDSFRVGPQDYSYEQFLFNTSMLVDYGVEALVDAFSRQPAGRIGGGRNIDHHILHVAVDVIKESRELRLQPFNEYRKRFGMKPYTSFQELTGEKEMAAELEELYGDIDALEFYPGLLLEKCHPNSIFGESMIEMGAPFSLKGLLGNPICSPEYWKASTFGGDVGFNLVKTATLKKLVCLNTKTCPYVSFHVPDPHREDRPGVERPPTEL
T1 sequence (O62698 whole entry): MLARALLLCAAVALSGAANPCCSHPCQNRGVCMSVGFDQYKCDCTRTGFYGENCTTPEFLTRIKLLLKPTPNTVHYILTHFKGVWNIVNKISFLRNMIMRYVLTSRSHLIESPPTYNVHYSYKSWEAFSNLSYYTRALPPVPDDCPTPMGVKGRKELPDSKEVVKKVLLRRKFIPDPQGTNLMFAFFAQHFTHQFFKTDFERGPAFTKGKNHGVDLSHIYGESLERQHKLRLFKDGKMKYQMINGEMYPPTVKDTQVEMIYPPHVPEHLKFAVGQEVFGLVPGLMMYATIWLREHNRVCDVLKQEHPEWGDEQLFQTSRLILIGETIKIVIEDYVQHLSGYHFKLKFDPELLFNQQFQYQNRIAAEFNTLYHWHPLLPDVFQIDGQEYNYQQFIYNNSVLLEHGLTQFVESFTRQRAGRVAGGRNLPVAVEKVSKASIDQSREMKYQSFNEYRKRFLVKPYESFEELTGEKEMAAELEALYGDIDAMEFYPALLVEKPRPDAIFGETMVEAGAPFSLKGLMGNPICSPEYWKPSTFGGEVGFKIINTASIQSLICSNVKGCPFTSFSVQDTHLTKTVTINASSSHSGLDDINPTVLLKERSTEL
Description: Inhibition of prostaglandin G/H synthase obtained from bovine seminal vesicles.

[3] = system: Rattus norvegicus; assay: Acute gastric toxicity (single oral dose) in male fasted rats; type: organism-based, Stomach; settings: in vivo
[4] = system: Mus musculus; assay: Oral analgesic activity was determined in mice by the acetylcholine-induced abdominal constriction assay upon ip administration of acetylcholine bromide 20 min following oral administration; type: functional; settings: Abdomen
[5] = species: Rattus norvegicus; assay: Evaluated for chronic potency in adjuvant arthritis assay; type: functional
[6] = system: Rattus norvegicus; assay: Percent change in average volume of pleural fluid at a dose of 100 mg/kg and 5-h response by Evans blue-carrageenan induced pleural effusion assay.; type: functional
[7] = system: Mus musculus; assay: Oral analgesic activity was determined in mice by the acetylcholine-induced abdominal constriction assay upon ip administration of acetylcholine bromide 5 hours following oral administration; type: functional; settings: Abdomen
[8] = species: Rattus norvegicus; assay: Evaluated for acute potency in pleural effusion assay; type: functional
[9] = system: Rattus norvegicus; assay: Percent change in average volume of pleural fluid at a dose 4 mg/kg of indomethacin and 5-h response is evaluated by Evans blue-carrageenan induced pleural effusion assay; type: functional
[10] = system: Rattus norvegicus; assay: Evaluated for chronic intestinal toxicity (multiple oral dose) in rats; type: organism-based; settings: in vivo

IC50 [2] [µM] | SMILES | Change [1] [%] | Gastric toxicity [3] | ED50 [4] [mg/kg] | Potency [5] | Change [6] [%] | ED50 [7] [mg/kg] | Potency [8] | Change [9] [%] | Intestinal toxicity [10]
17 | Cc1cc(CC(=O)[O-])c(N)c(C(=O)c2ccc(F)cc2)c1.[Na+] | 0 | – | – | – | -35 | – | – | -42 | –
37 | Nc1c(CC(=O)[O-])ccc(Cl)c1C(=O)c1ccccc1.[Na+] | -4 | – | – | – | -45 | – | – | -35 | –
> 1000 | Cc1ccc(CC(=O)[O-])c(N)c1C(=O)c1ccccc1.[Na+] | -38 | – | – | – | -13 | – | – | -1 | –
12 | COc1cc(CC(=O)[O-])c(N)c(C(=O)c2ccc(Cl)cc2)c1.[Na+] | -26 | – | – | – | -36 | – | – | -37 | –
0.07 | Cc1ccc(C(=O)c2cc(F)cc(CC(=O)[O-])c2N)cc1.[Na+] | -32 | – | – | – | -49 | – | – | -36 | –
1 | Cc1ccccc1C(=O)c1cccc(CC(=O)[O-])c1N.[Na+] | -13 | – | – | – | -32 | – | – | -25 | –
0.1 | Cc1ccc(C(=O)c2cccc(CC(=O)[O-])c2N)c(C)c1.[Na+] | -3 | – | – | – | -38 | – | – | -40 | –
0.6 | Nc1c(CC(=O)[O-])cc(Br)cc1C(=O)c1ccc(Cl)cc1.[Na+] | -26 | – | – | – | -42 | – | – | -40 | –
11 | Cc1cc(CC(=O)[O-])c(N)c(C(=O)c2ccccc2)c1.[Na+] | -11 | – | – | – | -35 | – | – | -25 | –
3 | Cc1ccc(C(=O)c2ccccc2)c(N)c1CC(=O)[O-].[Na+] | 2 | – | – | – | -39 | – | – | -38 | –
30 | Nc1c(CC(=O)[O-])cc(Cl)cc1C(=O)c1ccc(O)cc1.[Na+] | -3 | – | – | – | -21 | – | – | -40 | –
1 | Cc1cc(CC(=O)[O-])c(N)c(C(=O)c2ccc(Cl)cc2Cl)c1.[Na+] | -24 | – | – | – | -43 | – | – | -45 | –
0.9 | COc1cc(CC(=O)[O-])c(N)c(C(=O)c2ccc(Br)cc2)c1.[Na+] | -28 | – | – | – | -33 | – | – | -25 | –

SMILES | IC50 [2] [µM] | Change [1] [%] | Gastric toxicity [3] | ED50 [4] [mg/kg] | Potency [5] | Change [6] [%] | ED50 [7] [mg/kg] | Potency [8] | Change [9] [%] | Intestinal toxicity [10]
Cc1ccc(C(=O)c2cc(Cl)cc(CC(=O)[O-])c2N)cc1.[Na+] | 0.02 | -35 | 0.7 | 0.1 | 0.1 | -44 | 0.43 | 1.6 | -40 | –
Nc1c(CC(=O)[O-])cc(F)cc1C(=O)c1ccc(F)cc1.[Na+] | 0.2 | -42 | 0.37 | 0.71 | 0.01 | -42 | – | 1.4 | -40 | –
Nc1c(CC(=O)[O-])cc(Br)cc1C(=O)c1ccc(Br)cc1.[Na+] | 0.8 | -30 | 1.1 | > 0.32 | 2.5 | -34 | 0.2 | 4.2 | -33 | 1
CSc1ccc(C(=O)c2cc(Cl)cc(CC(=O)[O-])c2N)cc1.[Na+] | 0.02 | -43 | 0.9 | 0.1 | 0.1 | -43 | 1.9 | 1.8 | -40 | –
Nc1c(CC(=O)[O-])cc(F)cc1C(=O)c1ccc(Cl)cc1Cl.[Na+] | 0.1 | -41 | 1 | 0.16 | 0.13 | -46 | 0.65 | 1.2 | -45 | –
